Assay results reported in article PMC5405622 (Drug Metabolism Letters, 2016).
pKi: −log10 of the molar value. Several values for one entry are separate records, joined by “and”; a condition that tells them apart may be missing. Identical values can stand only once. Like-named read-outs stand apart in the source and are kept apart here. Blank lines part the entries; values can stand above or below the compound they belong to.

Assays:
[1] = system: mouse hepatocytes; experiment: Metabolism of GNE1 in mouse hepatocytes with or without ABT; type: in vitro ADME; settings: ABT 500 μM, GNE1 5 μM
[2] = read-out: Plasma concentration at Cmax; cited from earlier work
[3] = target: PAK1 (Homo sapiens, UniProt Q13153); experiment: PAK1 inhibition constant; type: biochemical; settings: read-out: PAK1 Ki
PAK1, sequence (Q13153 whole entry): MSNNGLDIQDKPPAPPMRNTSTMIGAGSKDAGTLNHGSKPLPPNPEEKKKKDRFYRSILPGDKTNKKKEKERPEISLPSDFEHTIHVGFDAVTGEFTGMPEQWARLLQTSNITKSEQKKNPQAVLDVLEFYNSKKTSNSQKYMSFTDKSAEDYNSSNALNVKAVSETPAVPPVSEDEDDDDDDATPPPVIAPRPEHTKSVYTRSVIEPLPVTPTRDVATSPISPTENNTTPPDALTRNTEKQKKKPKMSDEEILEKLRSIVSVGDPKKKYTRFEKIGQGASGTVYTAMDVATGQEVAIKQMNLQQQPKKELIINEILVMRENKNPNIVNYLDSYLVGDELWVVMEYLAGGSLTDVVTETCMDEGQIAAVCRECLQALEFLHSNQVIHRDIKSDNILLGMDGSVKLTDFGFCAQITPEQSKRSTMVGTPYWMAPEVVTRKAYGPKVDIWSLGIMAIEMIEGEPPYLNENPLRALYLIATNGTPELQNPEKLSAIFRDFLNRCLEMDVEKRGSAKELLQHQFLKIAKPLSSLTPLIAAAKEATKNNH

[4] = Log D at pH 7.4; type: physicochemical; settings: octanol/buffer
[5] = Kinetic solubility; type: physicochemical
[6] = system: MDCK parent cells; experiment: MDCK permeability and efflux; type: in vitro ADME; settings: for MDCK A→B Papp: apical to basolateral
[7] = Intrinsic clearance in human liver microsomes; type: in vitro ADME; settings: human liver microsomes 0.5 mg/mL, 0.5 μM, scaled
[8] = Intrinsic clearance in human hepatocytes; type: in vitro ADME; settings: human hepatocytes 0.5 million cells/mL, 0.5 μM, scaled
[9] = Intrinsic clearance in rat liver microsomes; type: in vitro ADME; settings: rat liver microsomes 0.5 mg/mL, 0.5 μM, scaled
[10] = Intrinsic clearance in rat hepatocytes; type: in vitro ADME; settings: rat hepatocytes 0.5 million cells/mL, 0.5 μM, scaled
[11] = system: cytochrome P450 (rat S9); experiment: NADPH-dependent; type: in vitro ADME; settings: S9 2 mg/mL, NADPH 1 mM
[12] = system: N-acetyltransferase (rat S9); experiment: Acetyl-CoA-dependent N-acetylation in rat liver S9; type: in vitro ADME; settings: S9 2 mg/mL, acetyl-CoA 1 mM
[13] = Intravenous bolus and infusion pharmacokinetics in Sprague-Dawley rats; type: in vivo, rat; settings: for Clearance relative to hepatic blood flow: dosed in rat; for In vivo rat CLp IV bolus: plasma; for Plasma CL: n = 3
[14] = Unbound fraction in rat; type: in vitro ADME
[15] = Single-pass isolated perfused rat liver; type: in vitro ADME; settings: for Propranolol (cassette) ER: propranolol 2 to 4 μM
[16] = Stability of GNE4 in rat intestinal S9 and feces; type: in vitro ADME; settings: rat intestinal S9 and feces (data not shown)
[17] = not given; remark: listed apart in the source
[18] = system: propranolol metabolism; experiment: In vitro inhibition of propranolol metabolism by quinine; type: in vitro ADME; settings: quinine 1-10 micromolar, in vitro (data not shown)
[19] = Unbound fraction in liver perfusate and liver homogenate; type: in vitro ADME, rat
[20] = system: Oct1/2; experiment: Blood clearance in Oct1/2 double KO and wild-type mice with or without ABT; type: in vivo, mouse; settings: for Reduction of blood clearance by ABT: ABT 100 mg/kg oral 2 h before GNE1 2 mg/kg IV
[21] = system: cryo-preserved rat hepatocytes; settings: cited from earlier work

Compound: Nn1nnc2ccccc21 [ABT, 1-aminobenzotriazole]
Inhibition of oxidative and N-acetylation metabolism of GNE1 [1]: completely inhibited
Cmax [2]: 752 µM

Compound: CC(C)NCC(O)COc1cccc2ccccc12 (stereo not drawn) [propranolol, reference compound]
Propranolol (cassette) ER ([15]; cassette with GNE1 0.3 μM and Quinine (10 μM)): 0.45
Propranolol (cassette) ER ([15]; cassette with GNE1 Cin = 0.3 μM): > 0.95
Propranolol (cassette) ER ([15]; cassette with GNE1 Cin = 0.3 μM, listed as Propranolol): >0.95
Propranolol (cassette) ER ([15]; cassette with GNE1 Cin = 8 μM): 0.91

Compound: C=C[C@H]1C[N@@]2CC[C@H]1C[C@H]2[C@H](O)c1ccnc2ccc(OC)cc12 [quinine]
Effect on propranolol metabolism [18]: inhibit propranolol metabolism

Further lines, with some results ahead:

pKi [3]: 7.59
Log DpH=7.4 [4]: -0.2
Kinetic solubility [5]: 136 µM
MDCK efflux ratio [6]: 6.2
MDCK A→B Papp [6]: 5 nm/s
HLM CLint [7]: 0.546 L/h/kg
HH CLint [8]: 0.27 L/h/kg
RLM CLint [9]: 0.498 L/h/kg
RH CLint [10]: 0.6 L/h/kg
CLint of P450 metabolism in rat S9 [11]: <0.6 L/h/kg
CLint of N-acetylation in rat S9 [12]: 1.26 L/h/kg
Clearance relative to hepatic blood flow [13]: greater than hepatic blood flow
In vivo rat CLp IV bolus ([13]; rat, IV bolus): 9.6 L/h/kg
fu rat [14]: 0.25
Compound: N[C@H]1CC[C@H](CNc2nccc(Nc3cc(C4CC4)[nH]n3)n2)CC1 [GNE3, N^2-(((1r,4r)-4-aminocyclohexyl)methyl)-N^4-(5-cyclo-propyl-1H-pyrazol-3-yl)pyrimidine-2,4-diamine]

pKi [3]: 7.66
Log DpH=7.4 [4]: 0.48
Kinetic solubility [5]: 72 µM
MDCK efflux ratio [6]: 13.5
MDCK A→B Papp [6]: 4 nm/s
HLM CLint [7]: 0.516 L/h/kg
HH CLint [8]: 0.456 L/h/kg
RLM CLint [9]: 3.72 L/h/kg
RH CLint [10]: 5.46 L/h/kg
CLint of P450 metabolism in rat S9 [11]: <0.6 L/h/kg
CLint of N-acetylation in rat S9 [12]: 20.2 L/h/kg
Clearance relative to hepatic blood flow [13]: greater than hepatic blood flow
In vivo rat CLp IV bolus ([13]; rat, IV bolus): >>hepatic blood flow
fu rat [14]: 0.22
Compound: NC1CCN(c2nc(Nc3cc(C4CC4)[nH]n3)c3sccc3n2)CC1 [GNE2, 2-(4-aminopiperidin-1-yl)-N-(5-cyclopropyl-1H-pyrazol-3-yl) thieno [[3],2-d]pyrimidin-4-amine]

Stability to hydrolysis [16]: stable to hydrolysis
GNE4 amount relative to parent (fold less) in urine, feces and bile combined (intact rats, over 72 hours): approximately 13 fold
Amount of GNE4 (N-acetylated metabolite of GNE1) detected in feces (rat, after IV GNE1, up to 24 hours, % of total dose): 9.5%
GNE4 amount relative to parent (fold less) in urine, feces and bile combined ([17]; BDC rats, over 72 hours): ~8 fold
Compound: CC(=O)N[C@H]1CC[C@H](CNc2ncc(Cl)c(Nc3cc(C4CC4)[nH]n3)n2)CC1 [GNE4, N-((1r,4r)-4-(((5-chloro-4-((5-cyclopropyl-1H-pyrazol-3-yl)amino)pyrimidin-2-yl)amino)methyl)cyclohexyl)acetamide]

pKi [3]: 7.59
Log DpH=7.4 [4]: 0.83
Kinetic solubility [5]: 157 µM
MDCK efflux ratio [6]: 43
MDCK A→B Papp [6]: 1 nm/s
HLM CLint [7]: 0.27 L/h/kg
HH CLint [8]: 0.144 L/h/kg
RLM CLint [9]: 0.366 L/h/kg
RH CLint [10]: 2.04 L/h/kg
Clearance relative to hepatic blood flow [13]: greater than hepatic blood flow
CLB (biliary clearance) ([13]; rat, IV bolus, 2 mg/kg): 1.29 ± 0.372 L/h/kg
CLR (renal clearance) ([13]; rat, IV bolus, 2 mg/kg): 2.98 ± 0.23 L/h/kg
Terminal half-life ([13]; rat, IV bolus, 2 mg/kg): 1.32 ± 0.43 h
Vss ([13]; rat, IV bolus, 2 mg/kg): 20.5 ± 1.92 L/kg
Plasma CL ([13]; rat, IV bolus, 2 mg/kg): 13 ± 3.18 L/h/kg
In vivo rat CLp IV bolus ([13]; rat, IV bolus): 13 L/h/kg
Terminal half-life ([13]; rat, IV infusion 0.57 mg/kg/h): 0.74 ± 0.10 h
Vss ([13]; rat, IV infusion 0.57 mg/kg/h): 4.2 ± 1.2 L/kg and 4.21 ± 1.16 L/kg
Plasma CL ([13]; rat, IV infusion 0.57 mg/kg/h to 90% of steady state): 7.26 ± 0.261 L/h/kg
fu rat [14]: 0.16
fu perfusate ([19]; isolated perfused liver perfusate (4% BSA, 20% bovine red blood cells)): 0.3
fu in liver (corrected) ([19]; liver homogenate, corrected for dilution): 0.3/0.01
Reduction of blood clearance by ABT ([20]; Oct1/2 double KO mice): 28.2%
Average change of blood clearance between wild-type and transporter KO mice ([20]; regardless of ABT treatment): 56%
Average overall decrease of blood clearance by ABT ([20]; wild-type and double KO mice averaged): 24%
Reduction of blood clearance by ABT ([20]; wild-type mice): 20.5%
GNE1 hepatic ER ([15]; GNE1 Cin = 0.3 μM with Quinine (10 μM)): 0.36
GNE1 hepatic ER ([15]; GNE1 Cin = 0.3 μM, flow 12 mL/min): 0.78
GNE1 hepatic ER ([15]; GNE1 Cin = 8 μM): 0.41
Perfusate Cout ([15]; end of perfusion, Cin = 0.3 μM): 0.07 µM
Total liver concentration of GNE1 ([15]; end of perfusion, Cin = 0.3 μM): 8 µM
Biliary clearance, fold lower than calculated perfusate clearance ([15]; isolated perfused rat liver, Cin 0.3 μM): about 26 fold
Biliary clearance ([15]; isolated perfused rat liver, GNE1 Cin = 0.3 μM): 0.042 L/h/kg
Biliary clearance ([15]; isolated perfused rat liver, GNE1 Cin = 0.3 μM with Quinine (10 μM)): 0.00276 L/h/kg
Biliary clearance ([15]; isolated perfused rat liver, GNE1 Cin = 8 μM): 0.0138 L/h/kg
kpu,u (intracellular to extracellular ratio of unbound concentrations) ([15]; liver/perfusate, Cin = 0.3 μM): 3.8
Biliary clearance as share of total perfusate clearance ([15]; multiple IPL experiments): less than 5%
Total amount of GNE1 recovered in urine over 24 hours (intact rats (no bile collection), % of dose): 16% and 15.6% and 15%
Dose recovery of unchanged GNE1 in urine (intact rats, 0-8 h (one value across 0-4h and 4-8h)): 8.5 ± 2.3 % of Total Dosed
Dose recovery of unchanged GNE1 in urine (intact rats, 8-24h): 7.1 ± 2.0 % of Total Dosed
Dose recovery of unchanged GNE1 in urine (intact rats, 24-48h): <1 % of Total Dosed
Dose recovery of unchanged GNE1 in feces (intact rats, 24-48h (72 h experiment)): 8.4 ± 2.9 % of Total Dosed
Total Recovery (24–72 h) of unchanged GNE1 (intact rats, 24–72 h): 8.4 % of Total Dosed
Dose recovery of unchanged GNE1 in feces (intact rats, 48-72h): <1 % of Total Dosed
Dose recovery of unchanged GNE1 in urine (intact rats, 48-72h): <1 % of Total Dosed
Recovery of GNE1 in feces during 0–24 hours (intact rats, 72 h collection experiment): up to 91 % of Total Dosed
Total Recovery of unchanged GNE1 (intact rats, up to 24 hours): 93 % of Total Dosed
N-acetylation as share of total dose (rat, IV): about 10%
Fecal recovery of unchanged GNE1 over 24 hours ([17]; BDC rats): 24%
Dose recovery of unchanged GNE1 in bile ([17]; BDC rats, 0-4h): 7.8 ± 1.2 % of Total Dosed
Dose recovery of unchanged GNE1 in urine ([17]; BDC rats, 0-4h): BQL
Dose recovery of unchanged GNE1 in feces ([17]; BDC rats, 0-8h): 5.8 ± 4.2 % of Total Dosed
Dose recovery of unchanged GNE1 in bile ([17]; BDC rats, 4-8h): 2.5 ± 0.9 % of Total Dosed
Dose recovery of unchanged GNE1 in bile ([17]; BDC rats, 8-24h): 3.9 ± 1.8 % of Total Dosed
Dose recovery of unchanged GNE1 in urine ([17]; BDC rats, 8-24h): 2.8 ± 1.0 % of Total Dosed
Dose recovery of unchanged GNE1 in bile ([17]; BDC rats, 24-48h): <1 % of Total Dosed
Dose recovery of unchanged GNE1 in feces ([17]; BDC rats, 24-48h): 2.2 ± 1.4 % of Total Dosed
Dose recovery of unchanged GNE1 in urine ([17]; BDC rats, 24-48h): <1 % of Total Dosed
Total Recovery (24–72 h) of unchanged GNE1 ([17]; BDC rats, 24–72 h): 2.2 % of Total Dosed
Dose recovery of unchanged GNE1 in bile ([17]; BDC rats, 48-72h): 0 % of Total Dosed
Dose recovery of unchanged GNE1 in feces ([17]; BDC rats, 48-72h): <1 % of Total Dosed
Dose recovery of unchanged GNE1 in urine ([17]; BDC rats, 48-72h): <1 % of Total Dosed
Overall biliary excretion of unchanged GNE1 ([17]; BDC rats, 24 h): ~14%
Recovery of GNE1 in feces during 0–24 hours ([17]; BDC rats, 72 h collection experiment): 31 % of Total Dosed
Percentage of GNE1 detected in urine ([17]; BDC rats, compared with intact rats): 30%
Total Recovery of unchanged GNE1 ([17]; BDC rats, up to 24 hours): 71 % of Total Dosed
Biliary clearance as share of total clearance ([17]; cannulated rats, IV): approximately 14%
Renal clearance as share of total clearance ([17]; rats, IV): ~16%
Compound: N[C@H]1CC[C@H](CNc2ncc(Cl)c(Nc3cc(C4CC4)[nH]n3)n2)CC1 [GNE1, N^2-(((1r,4r)-4-aminocyclohexyl)methyl)-5-chloro-N^4-(5-cyclopropyl-1H-pyrazol-3-yl)pyrimidine-2,4-diamine]
CLR (renal clearance) ([13]; rat, IV infusion 0.57 mg/kg/h): 1.2 ± 0.072 L/h/kg and 1.21 ± 0.0732 L/h/kg
Dose recovery of unchanged GNE1 in urine ([17]; BDC rats, 4-8h): 30 % of Total Dosed and 30 ± 1.1 % of Total Dosed
Dose recovery of unchanged GNE1 in feces ([17]; BDC rats, 8-24h): 18 % of Total Dosed and 18 ± 4.7 % of Total Dosed
Uptake rate (CLint, influx) [21]: 11.1 mL/min/g of liver
